From US11498928B2, “Macrocyclic spiroethers as Mcl-1 inhibitors” (ASCENTAGE PHARMA (SUZHOU) CO., LTD., priority 2019, dated 2022)

Key:
NCI-H929 cells = assay: Cell viability assay (NCI-H929 cells), CCK-8; assay type: cell-based; settings: 5% FBS
Protocol: NCI-H929 cells were obtained from American Type Culture Collection (ATCC). Cells were maintained in the recommended culture medium (RPMI 1640) with 10% FBS and 0.05 mM BME at 37° C. and an atmosphere of 5% CO2.
The effect of Compounds on cell viability was determined using Cell Counting Kit-8 (CCK-8) assay according to the manufacturer's instructions. 95 μL of NCI-H929 cell suspension (20000 cells/well) in culture medium were seeded into 96-well plates and cultured 4 hrs. Each tested compound was serially diluted in DMSO, then 5 μL of the compound or DMSO was diluted in 95 μL medium once more. At last, 5 μL of the compound dilution was added to the corresponding well of the cell plate. After the addition of the tested compound, the cells were incubated at 37° C. in an atmosphere of 5% CO2 for 24 hrs. At the end, 10 μL of CCK-8 solution was added to each well of the plate and incubated for 1-4 hours. The plates were read at 450 nm on the microplate reader (BioTek Synergy 1MF). The readings were normalized to the vehicle cells, and the IC50 was calculated by nonlinear regression analysis using GraphPad Prism 6 software. Cell Viability Assay (OPM-2 cells)

OPM-2 cells = assay: Cell viability assay (OPM-2 cells), CCK-8; assay type: cell-based; settings: 5% FBS
Protocol: OPM-2 cells were obtained from Deutsche Sammlung von Mikroorganismen and Zellkulturen GmbH (DSMZ). Cells were maintained in the recommended culture medium with 10% FBS at 37° C. and an atmosphere of 5% CO2.
The effect of representative Compounds of the Disclosure on cell viability was determined using Cell Counting Kit-8 (CCK-8) assay (Shanghai Life iLab Bio Technology) according to the manufacturer's instructions. Each tested compound was serially diluted in culture medium, 100 μL of the compound dilution was added into 96-well plates. 100 μL of an OPM-2 cell suspension (20000 cells/well) in culture medium were seeded into the corresponding well of the plate and the cells were incubated at 37° C. in an atmosphere of 5% CO2 for 24 hours. In the next day, 20 μL of CCK-8 solution was added to each well of the plate and incubated for 4 hours.
The plates were read at 450 nm on the microplate spectrophotometer (SpectraMax plus 384, Molecular devices). The readings were normalized to the vehicle cells, and the IC50 was calculated by nonlinear regression analysis using GraphPad Prism 6 software.

[1] = biological target: T1, Mcl-1 protein (residues 171-323) (Homo sapiens, UniProt Q07820); assay: Inhibition of Mcl-1 by fluorescence polarization (FP) competitive binding assay with FAM-Bid tracer; settings: 2 nM FAM-Bid, 20 nM Mcl-1, 30 min
T1 construct: Tag-free Mcl-1 protein (residues 171-323) was used in the FP assay
T1 sequence (Q07820 171-323): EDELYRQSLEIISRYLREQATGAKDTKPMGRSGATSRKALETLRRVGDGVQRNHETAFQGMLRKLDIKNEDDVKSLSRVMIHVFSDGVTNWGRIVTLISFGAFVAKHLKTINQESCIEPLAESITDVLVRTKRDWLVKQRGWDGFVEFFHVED
Protocol: Inhibition of Mcl-1 by Fluorescence Polarization (FP) Assay.
The relative binding potency of representative Compounds of the Disclosure was determined by a fluorescence polarization (FP) assay (Long et al, BMC Biotechnology 13:45 (2013)). The method used a fluorescein labelled peptide (FAM-Bid) which binds to the Mcl-1 protein leading to an increased anisotropy measured in milli-polarization (mP) values using a plate reader. […] Tag-free Mcl-1 protein (residues 171-323) was used in the FP assay (Mady et al, Scientific Reports 8: 10210-10210 (2018); Yang et al, ACS Med. Chem. Lett. 3:308-312 (2012)).
A 10-points serial dilution of each compound was prepared in DMSO and 5 μL solution was transferred into flat bottomed, 96-well back plate (final DMSO concentration 5%). 120 μL of Buffer (PBS, 0.01% BGG (Sigma Cat. #SRE0011), 0.01% Triton X-100), containing the Fluorescein labelled peptide (Final concentration 2 nM) and Mcl-1 protein (final concentration 20 nM) was then added. Assay plates were incubated 30 mins at room temperature with gentle shaking before FP was measured on a Biotek Synergy 1MF reader (Ex. 485 nm, Em. 528 nm, Cut off 510 nm) and mP calculated. The binding of increasing doses of test compounds was expressed as a percentage reduction in mP compared to a window established between 5% DMSO only and 100% inhibition controls (no Mcl-1 protein). 10-points dose response curves were plotted with GraphPad software using Sigmoidal Dose-Response Model and the IC50 values were determined by nonlinear regression fitting of the competition curves. Cell Viability Assay (NCI-H929 cells)

IC50 (NCI-H929 cells; Homo sapiens, NCI-H929, 24 h) [nM]	IC50 [1] [nM]	IC50 (NCI-H929 cells; 24 h) [nM]	Structure (SMILES)	IC50 (OPM-2 cells; Homo sapiens, OPM-2, 24 h) [nM]	IC50 (OPM-2 cells; 24 h) [nM]
> 10000	21		CO[C@H]1C2=C[C@@H](C2)[C@H](C)N(C[C@H]2CCCO2)S(=O)(=O)NC(=O)c2ccc3c(c2)N(C[C@@H]2CC[C@H]21)C[C@@]1(CCCc2cc(Cl)ccc21)CO3 (single isomer, unassigned) [30 (isomer 4)]	> 10000	
	6.8	360	CO[C@H]1C2=CC(CCS(=O)(=O)NC(=O)c3ccc4c(c3)N(C[C@@H]3CC[C@H]31)C[C@@]1(CCCc3cc(Cl)ccc31)CO4)C2 (single isomer, unassigned) [Cpd. No. 1 (Isomer 1)]		547
	5.7	1500	CO[C@H]1C2=CC(CCS(=O)(=O)NC(=O)c3ccc4c(c3)N(C[C@@H]3CC[C@H]31)C[C@@]1(CCCc3cc(Cl)ccc31)CO4)C2 (single isomer, unassigned) [Cpd. No. 1 (Isomer 2)]		2430
	8.3	4200	CO[C@@H]1C2=CC(CCS(=O)(=O)NC(=O)c3ccc4c(c3)N(C[C@@H]3CC[C@H]31)C[C@@]1(CCCc3cc(Cl)ccc31)CO4)C2 (single isomer, unassigned) [Cpd. No. 4 (Isomer 1)]		5720
	12	1600	CO[C@@H]1C2=CC(CCS(=O)(=O)NC(=O)c3ccc4c(c3)N(C[C@@H]3CC[C@H]31)C[C@@]1(CCCc3cc(Cl)ccc31)CO4)C2 (single isomer, unassigned) [Cpd. No. 4 (Isomer 2)]		2120
	4.8	120	CO[C@H]1C2=CC(C2)C(C)(C)CS(=O)(=O)NC(=O)c2ccc3c(c2)N(C[C@@H]2CC[C@H]21)C[C@@]1(CCCc2cc(Cl)ccc21)CO3 (single isomer, unassigned) [Cpd. No. 5 (Isomer 1)]		411
	8.3	1600	CO[C@H]1C2=CC(C2)C(C)(C)CS(=O)(=O)NC(=O)c2ccc3c(c2)N(C[C@@H]2CC[C@H]21)C[C@@]1(CCCc2cc(Cl)ccc21)CO3 (single isomer, unassigned) [Cpd. No. 5 (Isomer 2)]		5210
	5.2	870	CO[C@@H]1C2=CC(C2)C(C)(C)CS(=O)(=O)NC(=O)c2ccc3c(c2)N(C[C@@H]2CC[C@H]21)C[C@@]1(CCCc2cc(Cl)ccc21)CO3 (single isomer, unassigned) [Cpd. No. 6 (Isomer 1)]		1300
	6.3	3400	CO[C@@H]1C2=CC(C2)C(C)(C)CS(=O)(=O)NC(=O)c2ccc3c(c2)N(C[C@@H]2CC[C@H]21)C[C@@]1(CCCc2cc(Cl)ccc21)CO3 (single isomer, unassigned) [Cpd. No. 6 (Isomer 2)]		2870
	4.4	680	CC[C@@H]1CS(=O)(=O)NC(=O)c2ccc3c(c2)N(C[C@@H]2CC[C@H]2[C@@H](OC)C2=CC1C2)C[C@@]1(CCCc2cc(Cl)ccc21)CO3 (single isomer, unassigned) [Cpd. No. 9 (Isomer 1)]		1170
	3.9	210	CC[C@@H]1CS(=O)(=O)NC(=O)c2ccc3c(c2)N(C[C@@H]2CC[C@H]2[C@@H](OC)C2=CC1C2)C[C@@]1(CCCc2cc(Cl)ccc21)CO3 (single isomer, unassigned) [Cpd. No. 9 (Isomer 2)]		260
	4.9	1700	CC[C@@H]1CS(=O)(=O)NC(=O)c2ccc3c(c2)N(C[C@@H]2CC[C@H]2[C@@H](OC)C2=CC1C2)C[C@@]1(CCCc2cc(Cl)ccc21)CO3 (single isomer, unassigned) [Cpd. No. 10 (Isomer 1)]		2500
	4.9	780	CC[C@@H]1CS(=O)(=O)NC(=O)c2ccc3c(c2)N(C[C@@H]2CC[C@H]2[C@@H](OC)C2=CC1C2)C[C@@]1(CCCc2cc(Cl)ccc21)CO3 (single isomer, unassigned) [Cpd. No. 10 (Isomer 2)]		1130
	11	150	CO[C@H]1C2=CC(C2)[C@H](C)CS(=O)(=O)NC(=O)c2ccc3c(c2)N(C[C@@H]2CC[C@H]21)C[C@@]1(CCCc2cc(Cl)ccc21)CO3 (single isomer, unassigned) [Cpd. No. 14 (Isomer 2)]		1310
230	6.5		CO[C@H]1C2=C[C@H](C2)[C@H](C)[C@@H](C)S(=O)(=O)NC(=O)c2ccc3c(c2)N(C[C@@H]2CC[C@H]21)C[C@@]1(CCCc2cc(Cl)ccc21)CO3 (single isomer, unassigned) [Cpd. No. 15 (isomer 2)]	1000	
310	12		CO[C@H]1C2=C[C@H](C2)[C@H](C)[C@@H](C)S(=O)(=O)NC(=O)c2ccc3c(c2)N(C[C@@H]2CC[C@H]21)C[C@@]1(CCCc2c1ccc(Cl)c2F)CO3 (single isomer, unassigned) [Cpd. No. 17 (isomer 2)]	601	
	4.2	37	CO[C@H]1C2=CC(C)(C2)[C@H](C)CS(=O)(=O)NC(=O)c2ccc3c(c2)N(C[C@@H]2CC[C@H]21)C[C@@]1(CCCc2cc(Cl)ccc21)CO3 (single isomer, unassigned) [Cpd. No. 18 (Isomer 1)]		25
	4.9	440	CO[C@H]1C2=CC(C)(C2)[C@H](C)CS(=O)(=O)NC(=O)c2ccc3c(c2)N(C[C@@H]2CC[C@H]21)C[C@@]1(CCCc2cc(Cl)ccc21)CO3 (single isomer, unassigned) [Cpd. No. 18 (Isomer 2)]		1210
670	19		CO[C@H]1C2=CC(C2)[C@H](C)[C@@H](C)S(=O)(=O)NC(=O)c2ccc3c(c2)N(C[C@@H]2CC[C@H]21)C[C@@]1(CCCc2c1cc(F)c(Cl)c2F)CO3 (single isomer, unassigned) [Cpd. No. 19]	802	
49	7.7		C[C@@H]1[C@@H](C)S(=O)(=O)NC(=O)c2ccc3c(c2)N(C[C@@H]2CC[C@H]2[C@@H](N2CCOCC2)C2=C[C@H]1C2)C[C@@]1(CCCc2c1ccc(Cl)c2F)CO3 (single isomer, unassigned) [compound 56]	65	
1300	14		CO[C@H]1C2CC(C2)[C@H](C)N(C)S(=O)(=O)NC(=O)c2ccc3c(c2)N(C[C@@H]2CC[C@H]21)C[C@@]1(CCCc2cc(Cl)ccc21)CO3 [Cpd. No. 28, (1S,12′S,16′S,16a′R,18a′R)-6-chloro-16′-methoxy-11′,12′-dimethyl-3,4,12′,13′,14′,15′,16′,16a′,17′,18′,18a′,19′-dodecahydro-1′H,2H,3′H,11′H-spiro[naphthalene-1,2′-[5,7]etheno[13,15]methanocyclobuta[i][1,4]oxazepino[3,4-f][1]thia[2,7,16]triazacyclohexadecin]-8′(9′H)-one 10′,10′-dioxide]	1500	
